# Target: T1, recombinant full-length USP7 (Homo sapiens, UniProt Q93009)
# T1 construct: A 25 μl reaction volume containing recombinant full-length USP7 (62 pM)
# Test: USP7-mediated ubiquitin-rhodamine cleavage assay
# Assay type: biochemical
# Conditions: recombinant full-length USP7 62 pM; ubiquitin-rhodamine 100 nM; 30-minute incubation with compound, 1 hour reaction at room temperature; read-out: Potency: USP7 IC50
# Experimental: In the case of the USP7 deubiquitylating enzyme, the IC50 of an USP7 inhibiting compound is the concentration of the compound that inhibits 50% of the activity observed in a USP7-mediated ubiquitin-rhodamine cleavage assay.
# For the USP7 inhibitors disclosed herein, their potency was measured using the following test method.
# A 25 μl reaction volume containing recombinant full-length USP7 (62 pM) in 20 mM HEPES pH 7.3, 150 mM NaCl, 1 mM TCEP, and 125 μg/ml BSA was assembled in wells of 384 well plates. Test compounds were dispensed with a Hewlett Packard D300 digital dispenser (1% final DMSO). Following a 30-minute incubation at room temperature, ubiquitin-rhodamine was added with the D300 to a final concentration of 100 nM and the reaction was allowed to proceed for 1 hour at room temperature protected from light. The reaction was stopped by the addition of 5 μl 1M acetic acid. Rhodamine fluorescence was measured using an Envision plate reader (Perkin Elmer) and IC50 values were determined by non-linear regression using a 4-parameter fit in a Dotmatics (Bishops Stortford, Hertfordshire, England) software package.
# T1 sequence (Q93009 whole entry): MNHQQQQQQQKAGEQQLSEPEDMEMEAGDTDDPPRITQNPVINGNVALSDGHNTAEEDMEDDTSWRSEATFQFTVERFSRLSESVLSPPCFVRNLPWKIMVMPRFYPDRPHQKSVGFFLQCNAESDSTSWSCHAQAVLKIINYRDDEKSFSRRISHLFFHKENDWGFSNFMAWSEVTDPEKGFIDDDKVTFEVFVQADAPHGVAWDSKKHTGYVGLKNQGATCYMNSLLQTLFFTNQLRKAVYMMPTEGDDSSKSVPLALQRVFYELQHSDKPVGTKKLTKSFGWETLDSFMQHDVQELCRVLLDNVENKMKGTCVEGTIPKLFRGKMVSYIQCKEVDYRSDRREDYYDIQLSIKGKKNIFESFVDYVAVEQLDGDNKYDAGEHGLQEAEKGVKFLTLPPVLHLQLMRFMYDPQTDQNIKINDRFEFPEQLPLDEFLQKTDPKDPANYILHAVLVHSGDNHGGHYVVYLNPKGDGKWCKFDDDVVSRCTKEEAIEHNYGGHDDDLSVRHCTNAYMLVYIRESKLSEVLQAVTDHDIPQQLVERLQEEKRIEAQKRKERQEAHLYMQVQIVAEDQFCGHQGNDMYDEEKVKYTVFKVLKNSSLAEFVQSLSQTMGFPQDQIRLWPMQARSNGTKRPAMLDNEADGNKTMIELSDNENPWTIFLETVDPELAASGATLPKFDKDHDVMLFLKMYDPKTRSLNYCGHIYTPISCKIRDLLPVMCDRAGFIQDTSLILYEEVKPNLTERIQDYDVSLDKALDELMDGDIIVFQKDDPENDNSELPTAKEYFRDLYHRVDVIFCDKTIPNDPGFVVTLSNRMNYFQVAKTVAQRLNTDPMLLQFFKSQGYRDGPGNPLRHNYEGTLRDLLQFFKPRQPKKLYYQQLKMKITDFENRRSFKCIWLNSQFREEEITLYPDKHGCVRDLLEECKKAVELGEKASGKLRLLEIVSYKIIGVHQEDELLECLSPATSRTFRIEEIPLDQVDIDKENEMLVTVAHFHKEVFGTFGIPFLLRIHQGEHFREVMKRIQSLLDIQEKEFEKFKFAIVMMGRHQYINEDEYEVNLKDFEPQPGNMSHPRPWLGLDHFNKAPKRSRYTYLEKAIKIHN
row,Compound,IC50 [µM]
1,"CCC(O)c1cc2nccc(-c3cc(Cl)cc(C)c3OC3CCCCNC3)c2s1 (stereo not drawn) [Example 265, 1-(7-(2-(Azepan-3-yloxy)-5-chloro-3-methylphenyl)thieno[3,2-b]pyridin-2-yl)propan-1-ol]",1 to 10
2,"CCC(O)c1cc2nccc(-c3cc(Cl)cc(C)c3O[C@@H]3CCNC3)c2s1 (stereo partly drawn) [Example 51, 1-(7-(5-Chloro-3-methyl-2-(((R)-pyrrolidin-3-yl)oxy)phenyl)thieno[3,2-b]pyridin-2-yl)propan-1-ol]",1 to 10
3,"Cc1cc(Cl)cc(-c2ncnc3cc(CN4C(=O)C5C(C4=O)C5(C)C)sc23)c1O[C@@H]1CNCC[C@@H]1C (stereo partly drawn) [Example 350, 3-[[4-[5-chloro-3-methyl-2-[[(3S,4S)-4-methyl-3-piperidyl]oxy]phenyl]thieno[3,2-d]pyrimidin-6-yl]methyl]-6,6-dimethyl-3-azabicyclo[3.1.0]hexane-2,4-dione]",< 1
4,"Cc1cc(Cl)cc(-c2ccnc3cc(CN4C(=O)OC(C)(C)C4=O)sc23)c1O[C@@H]1CNC[C@@H]1F [Example 133, 3-((7-(5-Chloro-2-(((3R,4S)-4-fluoropyrrolidin-3-yl)oxy)-3-methylphenyl)thieno[3,2-b]pyridin-2-yl)methyl)-5,5-dimethyloxazolidine-2,4-dione]",< 1
5,"Cc1cc(Cl)cc(-c2ccnc3cc(Cn4c(=O)ccn(CC(F)(F)F)c4=O)sc23)c1O[C@@H]1CCNC[C@@H]1C [Example 173, 3-((7-(5-Chloro-3-methyl-2-(((3S,4R)-3-methylpiperidin-4-yl)oxy)phenyl)thieno[3,2-b]pyridin-2-yl)methyl)-1-(2,2,2-trifluoroethyl)pyrimidine-2,4(1H,3H)-dione]",< 1
6,"Cc1cc(Cl)cc(-c2ccnc3cc(CN4C(=O)C5C(C4=O)C5(C)C)sc23)c1OC1CC(N)C1 (stereo not drawn) [Example 357, 3-[[7-[2-(3-aminocyclobutyoxy)-5-chloro-3-methyl-phenyl]thieno[3,2-b]pyridin-2-yl]methyl]-6,6-dimethyl-3-azabicyclo[3.1.0]hexane-2,4-dione; 2,2,2-trifluoroacetic acid]",< 1
7,"Cc1cc(Cl)cc(-c2ccnc3cc(CO)sc23)c1O[C@@H]1CCC[C@H]1N(C)C [Example 92, (7-(5-Chloro-2-(((1R,2R)-2-(dimethylamino)cyclopentyl)oxy)-3-methylphenyl)thieno[3,2-b]pyridin-2-yl)methanol]",> 30
8,"Cc1cc(Cl)cc(-c2ccnc3cc(CN4C(=O)C(C)C(C)C4=O)sc23)c1O[C@H]1CCCNC1 (stereo partly drawn) [Example 296, 1-[[7-[5-chloro-3-methyl-2-[[(3S)-3-piperidyl]oxy]phenyl]thieno[3,2-b]pyridin-2-yl]methyl]-3,4-dimethyl-pyrrolidine-2,5-dione; 2,2,2-trifluoroacetic acid]",< 1
9,"3-[[7-[5-chloro-3-methyl-2-[[(3S,6S)-6-methyl-3-piperidyl]oxy]phenyl]thieno[3,2-b]pyridin-2-yl]methyl]-6,6-dimethyl-3-azabicyclo[3.1.0]hexane-2,4-dione; 2,2,2-tirfluoroacetic acid [Example 304]",< 1

# Second part, the compound after the results:
row,IC50 [µM],Compound
1,10 to 30,"CCC(O)c1cc2nccc(-c3cc(Cl)cc(C)c3OCC3CCNCC3)c2s1 (stereo not drawn) [Example 204, 1-(7-(5-Chloro-3-methyl-2-(piperidin-4-ylmethoxy)phenyl)thieno[3,2-b]pyridin-2-yl)propan-1-ol]"
2,10 to 30,"Cc1cc(Cl)cc(-c2ccnc3cc(CO)sc23)c1O[C@@H]1CC[C@@H](N(C)C)C1 [Example 93, (7-(5-Chloro-2-(((1R,3R)-3-(dimethylamino)cyclopentyl)oxy)-3-methylphenyl)thieno[3,2-b]pyridin-2-yl)methanol]"
3,< 1,"Cc1cc(Cl)cc(-c2ccnc3cc(Cn4c(=O)ccn(CC(F)(F)F)c4=O)sc23)c1O[C@@H]1CC[C@@H](N)C1 [Example 59, 3-((7-(2-(((1R,3R)-3-Aminocyclopentyl)oxy)-5-chloro-3-methylphenyl)thieno[3,2-b]pyridin-2-yl)methyl)-1-(2,2,2-trifluoroethyl)pyrimidine-2,4(1H,3H)-dione]"
4,< 1,"Cc1cc(Cl)cc(-c2ccnc3cc(CN4C(=O)CCC4=O)sc23)c1OCC1(F)CNC1 [Example 15, 1-((7-(5-Chloro-2-((3-fluoroazetidin-3-yl)methoxy)-3-methylphenyl)thieno[3,2-b]pyridin-2-yl)methyl)pyrrolidine-2,5-dione]"
5,< 1,"Cc1cc(Cl)cc(-c2ccnc3cc(CN4C(=O)CCC4=O)sc23)c1OC1CCNCC1 [Example 210, 1-((7-(5-Chloro-3-methyl-2-(piperidin-4-yloxy)phenyl)thieno[3,2-b]pyridin-2-yl)methyl)pyrrolidine-2,5-dione]"
6,< 1,"Cc1cc(Cl)cc(-c2ccnc3cc(CN4C(=O)C5CCCC5C4=O)sc23)c1O[C@@H]1CNC[C@@H]1F (stereo partly drawn) [Example 141, 2-((7-(5-Chloro-2-(((3R,4S)-4-fluoropyrrolidin-3-yl)oxy)-3-methylphenyl)thieno[3,2-b]pyridin-2-yl)methyl)tetrahydrocyclopenta[c]pyrrole-1,3(2H,3aH)-dione]"
7,10 to 30,"Cc1cc(Cl)cc(-c2ccnc3cc(CO)sc23)c1OCC12CNCC1C2 (stereo not drawn) [Example 69, (7-(2-((3-Azabicyclo[3.1.0]hexan-1-yl)methoxy)-5-chloro-3-methylphenyl)thieno[3,2-b]pyridin-2-yl)methanol]"
8,< 1,"CCC(O)c1cc2ncnc(-c3cc(C#N)cc(C)c3O[C@@H]3CNC[C@@H]3F)c2s1 (stereo partly drawn) [Example 95, 4-(((3R,4S)-4-Fluoropyrrolidin-3-yl)oxy)-3-(6-(1-hydroxypropyl)thieno[3,2-d]pyrimidin-4-yl)-5-methylbenzonitrile]"

# Same assay, conditions: recombinant full-length USP7 62 pM; ubiquitin-rhodamine 100 nM; 30-minute pre-incubation, 1 hour reaction at room temperature; read-out: Potency (USP7 IC50)
row,Compound,IC50 [µM]
1,"Cc1cc(Cl)cc(-c2ccnc3cc(Cn4c(=O)ccn(C)c4=O)sc23)c1O[C@@H]1CNC[C@H](C)C1 [Example 524, 3-[[7-[5-chloro-3-methyl-2-[[(3S,5R)-5-methyl-3-piperidyl]oxy]phenyl]thieno[3,2-b]pyridin-2-yl]methyl]-1-methyl-pyrimidine-2,4-dione]",< 1
2,"Cc1cc(Cl)cc(-c2ccnc3cc(Cn4c(=O)ccn(C)c4=O)sc23)c1O[C@@H]1CC[C@](C)(N)C1 [Example 519, 3-[[7-[2-[(1R,3S)-3-amino-3-methyl-cyclopentoxy]-5-chloro-3-methyl-phenyl]thieno[3,2-b]pyridin-2-yl]methyl]-1-methyl-pyrimidine-2,4-dione; 2,2,2-trifluoroacetic acid]",< 1
3,"Cc1cc(Cl)cc(-c2ncnc3cc(Cn4c(=O)ccn(CC(F)(F)F)c4=O)sc23)c1O[C@@H]1CCNC[C@@H]1C [Example 584, 3-[[4-[5-chloro-3-methyl-2-[[(3S,4R)-3-methyl-4-piperidyl]oxy]phenyl]thieno[3,2-d]pyrimidin-6-yl]methyl]-1-(2,2,2-trifluoroethyl)pyrimidine-2,4-dione]",< 1
4,"Cc1cc(Cl)cc(-c2ccnc3cc(Cn4c(=O)ccn(CC(F)(F)F)c4=O)sc23)c1OCC1COC1 [Example 669, 3-[[7-[5-chloro-3-methyl-2-(oxetan-3-ylmethoxy)phenyl]thieno[3,2-b]pyridin-2-yl]methyl]-1-(2,2,2-trifluoroethyl)pyrimidine-2,4-dione]",< 1
5,"Cc1cc(Cl)cc(-c2ccnc3cc(CN4C(=O)CCC4=O)sc23)c1OC1CC(N)C1 (stereo not drawn) [Example 437, 1-[[7-[2-(3-aminocyclobutyoxy)-5-chloro-3-methyl-phenyl]thieno[3,2-b]pyridin-2-yl]methyl]pyrrolidine-2,5-dione; 2,2,2-trifluoroacetic acid]",< 1
6,"Cc1cc(Cl)cc(-c2ncnc3cc(Cn4c(=O)ccn(CC(F)(F)F)c4=O)sc23)c1OC1CCNCC1 [Example 527, 3-[[4-[5-chloro-3-methyl-2-(4-piperidyloxy)phenyl]thieno[3,2-d]pyrimidin-6-yl]methyl]-1-(2,2,2-trifluoroethyl)pyrimidine-2,4-dione]",< 1

# Further lines, results first:
row,IC50 [µM],Compound
1,< 1,"Cc1cc(Cl)cc(-c2ccnc3cc(Cn4c(=O)ccn(C)c4=O)sc23)c1OC1CCNC(C)(C)C1 (stereo not drawn) [Example 572, 3-[[7-[5-chloro-2-[(2,2-dimethyl-4-piperidyl)oxy]-3-methyl-phenyl]thieno[3,2-b]pyridin-2-yl]methyl]-1-methyl-pyrimidine-2,4-dione; 2,2,2-trifluoroacetic acid]"
2,< 1,"Cc1cc(Cl)cc(-c2ccnc3cc(Cn4c(=O)ccn(C)c4=O)sc23)c1O[C@@H]1CCN(CCO)C[C@@H]1C [Example 475, 3-[[7-[5-chloro-2-[[(3S,4R)-1-(2-hydroxyethyl)-3-methyl-4-piperidyl]oxy]-3-methyl-phenyl]thieno[3,2-b]pyridin-2-yl]methyl]-1-methyl-pyrimidine-2,4-dione]"
3,< 1,"Cc1cc(Cl)cc(-c2ccnc3cc(Cn4c(=O)ccn(CC(F)(F)F)c4=O)sc23)c1OC1CCCCC1 [Example 665, 3-[[7-[5-chloro-2-(cyclohexoxy)-3-methyl-phenyl]thieno[3,2-b]pyridin-2-yl]methyl]-1-(2,2,2-trifluoroethyl)pyrimidine-2,4-dione]"
4,< 1,"Cc1cc(Cl)cc(-c2ncnc3cc(Cn4c(=O)ccn(CC(F)(F)F)c4=O)sc23)c1O[C@H]1CCNC[C@H]1C [Example 585, 3-[[4-[5-chloro-3-methyl-2-[[(3R,4S)-3-methyl-4-piperidyl]oxy]phenyl]thieno[3,2-d]pyrimidin-6-yl]methyl]-1-(2,2,2-trifluoroethyl)pyrimidine-2,4-dione]"

# Reference: patent US10722514B2 (FLX Bio, Inc., priority 2017, dated 2020)
